Measurements published in US10556865B2, “Synergistic herbicidal composition containing certain pyridine or pyrimidine carboxylic acids and certain cereal and rice herbicides” (Dow AgroSciences, LLC, priority 2007, dated 2020).
Several values for one entry are separate records, joined by “and”; a condition that tells them apart may be missing. Identical values can stand only once.

Assays:
Format in all cases: in vivo
[1] = test system: Italian ryegrass (Lolium multiflorum L; LOLMU); experiment: Postemergence herbicidal activity of mixtures in cereal crops (greenhouse, visual injury); conditions: for LOLMU: Table 13
Summary of the method: (§1)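 Greenhouse postemergence; 2–3 true leaves; ~14 h light, ~18/17 °C. Cpd A or B (Me ester, TEA, K salt) ± 2nd cereal herbicide, solo and 2-/3-way mixes, 187 L/ha in acetone/DMSO-based carrier with crop oil concentrate and Triton X-77. Subirrigated; % injury at 20–22 d. Colby expected.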

[2] = test system: annual bluegrass (Poa annua L; POAAN); experiment: as above
Summary of the method: as §1

[3] = test system: canola (Brassica napus L; BRSNN); experiment: as above
Summary of the method: as §1

[4] = test system: downy brome (Bromus tectorum L; BROTE); experiment: as above
Summary of the method: as §1

[5] = test system: lady's-thumb (Polygonum persicaria L; POLPE); experiment: as above
Summary of the method: as §1

[6] = test system: wild mustard (Sinapis arvensis L; SINAR); experiment: as above
Summary of the method: as §1

Cyperus iria L. (CYPIR) = experiment: Postemergence herbicidal mixtures for weed control in direct seeded rice (greenhouse, visual % injury); conditions: for % Injury Ob: CYPIR
[7] = test system: Fimbristylis miliacea (L.) VAHL (FIMMI); experiment: as above; conditions: FIMMI
[8] = test system: kochia (Kochia scoparia L; KCHSC); experiment: Postemergence herbicidal activity of mixtures in cereal crops (greenhouse, visual injury)
Summary of the method: as §1

COC(=O)c1nc(-c2ccc(Cl)c(OC)c2F)cc(N)c1Cl [Compound A Methyl, 4-amino-3-chloro-6-(4-chloro-2-fluoro-3-methoxyphenyl)pyridine-2-carboxylic acid methyl ester]
LOLMU Ob ([1]; 35 g/ha, Table 10): 3% | LOLMU Ob ([1]; 70 g/ha, Table 10): 20% | LOLMU Ob ([1]; 140 g/ha, Table 10): 40% | POAAN Ob ([2]; 35 g/ha, Table 9): 0% | POAAN Ob ([2]; 35 g/ha, Table 10): 0% | POAAN Ob ([2]; 70 g/ha, Table 9): 3% | POAAN Ob ([2]; 70 g/ha, Table 10): 3% | POAAN Ob ([2]; 140 g/ha, Table 9): 3% | POAAN Ob ([2]; 140 g/ha, Table 10): 3% | BRSNN Ob ([3]; 8.75 g/ha): 50% | BRSNN Ob ([3]; 17.5 g/ha): 50% | BRSNN Ob ([3]; 35 g/ha): 50% | BRSNN Ob ([3]; 70 g/ha): 50% | BROTE Ob ([4]; 35 g/ha, Table 8): 0.0% | BROTE Ob ([4]; 35 g/ha, Table 9): 0% | BROTE Ob ([4]; 35 g/ha, Table 10): 0% | BROTE Ob ([4]; 70 g/ha, Table 8): 0.0% | BROTE Ob ([4]; 70 g/ha, Table 9): 0% | BROTE Ob ([4]; 70 g/ha, Table 10): 0% | BROTE Ob ([4]; 140 g/ha, Table 8): 13% | BROTE Ob ([4]; 140 g/ha, Table 9): 13% | BROTE Ob ([4]; 140 g/ha, Table 10): 13% | POLPE Ob ([5]; 8.75 g/ha): 50% | POLPE Ob ([5]; 17.5 g/ha): 50% | POLPE Ob ([5]; 35 g/ha): 65% | POLPE Ob ([5]; 70 g/ha): 70% | SINAR Ob ([6]; 17.5 g/ha): 70% and 80% | SINAR Ob ([6]; 35 g/ha): 80% and 85% | SINAR Ob ([6]; 70 g/ha): 85% | % Injury Ob (Cyperus iria L. (CYPIR); 35 g/ha alone): 50% | % Injury CYPIR Ob (Cyperus iria L. (CYPIR); alone 4.38 g/ha): 70% | % Injury CYPIR Ob (Cyperus iria L. (CYPIR); alone 35 g/ha): 50% | % Injury Ob ([7]; 4.38 g/ha alone): 20% | % Injury Ob ([7]; 8.75 g/ha alone): 40%

COc1c(Cl)ccc(-c2cc(N)c(Cl)c(C(=O)O)n2)c1F [Compound A TEA, 4-amino-3-chloro-6-(4-chloro-2-fluoro-3-methoxyphenyl)pyridine-2-carboxylic acid]
LOLMU ([1]; 35 g/ha): 0% | LOLMU Ob ([1]; 35 g/ha, Table 14): 0% | LOLMU Ob ([1]; 35 g/ha, Table 17): 0% | LOLMU ([1]; 70 g/ha): 0% | LOLMU Ob ([1]; 70 g/ha, Table 14): 3% | LOLMU Ob ([1]; 70 g/ha, Table 17): 0% | LOLMU ([1]; 140 g/ha): 0% | LOLMU Ob ([1]; 140 g/ha, Table 14): 3% | LOLMU Ob ([1]; 140 g/ha, Table 17): 5% | POAAN Ob ([2]; 35 g/ha, Table 16): 0% | POAAN Ob ([2]; 35 g/ha, Table 17): 0% | POAAN Ob ([2]; 70 g/ha, Table 16): 0% | POAAN Ob ([2]; 70 g/ha, Table 17): 0% | POAAN Ob ([2]; 140 g/ha, Table 16): 0% | POAAN Ob ([2]; 140 g/ha, Table 17): 0% | BROTE Ob ([4]; 35 g/ha, Table 15): 0% | BROTE Ob ([4]; 35 g/ha, Table 16): 0% | BROTE Ob ([4]; 35 g/ha, Table 18): 0% | BROTE Ob ([4]; 70 g/ha, Table 15): 0% | BROTE Ob ([4]; 70 g/ha, Table 16): 0% | BROTE Ob ([4]; 70 g/ha, Table 18): 3% | BROTE Ob ([4]; 140 g/ha, Table 15): 0% | BROTE Ob ([4]; 140 g/ha, Table 16): 0% | BROTE Ob ([4]; 140 g/ha, Table 18): 3% | KCHSC Ob ([8]; 8.75 g/ha): 35% | KCHSC Ob ([8]; 8.75 g/ha alone): 65% | KCHSC Ob ([8]; 17.5 g/ha): 60% | KCHSC Ob ([8]; 17.5 g/ha alone): 77% | KCHSC Ob ([8]; 35 g/ha): 65% | KCHSC Ob ([8]; 35 g/ha alone): 92% | KCHSC Ob ([8]; 70 g/ha): 70% | KCHSC Ob ([8]; 70 g/ha alone): 99% | POLPE Ob ([5]; 8.75 g/ha alone): 30% | POLPE Ob ([5]; 17.5 g/ha alone): 41% | POLPE Ob ([5]; 35 g/ha alone): 68% | SINAR Ob ([6]; 8.75 g/ha): 35% | SINAR Ob ([6]; 17.5 g/ha): 60% | SINAR Ob ([6]; 35 g/ha): 65% | SINAR Ob ([6]; 70 g/ha): 70%

COC(=O)c1nc(-c2ccc(Cl)c(OC)c2F)nc(N)c1Cl [Compound B Methyl, 6-amino-5-chloro-2-(4-chloro-2-fluoro-3-methoxyphenyl)pyrimidine-4-carboxylic acid methyl ester]
BRSNN Ob ([3]; 8.75 g/ha alone): 20% | BRSNN Ob ([3]; 17.5 g/ha alone): 35% | BRSNN Ob ([3]; 35 g/ha alone): 50% | BRSNN Ob ([3]; 70 g/ha alone): 55%

O=C(O)c1c(Cl)ccc2cc(Cl)cnc12 [Quinclorac]
KCHSC Ob ([8]; 140 g/ha alone): 0% | % Injury Ob (Cyperus iria L. (CYPIR); 140 g/ha alone): 0% | % Injury Ob ([7]; 140 g/ha alone): 0%
